Two substances from US4497802A, “N-Acyl glycopeptide derivatives” (Eli Lilly and Company, priority 1983, dated 1985) can be followed below.

In assay [1] the test system is Staphylococcus aureus X1.1. Put plainly: MIC, standard agar-dilution assay. Type of assay: cell-based. The following applies: Staphylococcus aureus X1.1; agar dilution.
Assay [2] has as its system Staphylococcus aureus V41. Put plainly: MIC, standard agar-dilution assay. Type of assay: cell-based. The note with it: Staphylococcus aureus V41, penicillin-resistant strain; agar dilution. In general terms: In agar dilution, organisms are placed on agar that contains the substance at set levels.
Assay [3] deals with Staphylococcus aureus X400. Put plainly: MIC, standard agar-dilution assay. Type of assay: cell-based. The following applies: Staphylococcus aureus X400, methicillin-resistant strain.
Assay [4] relates to Staphylococcus aureus S13E. Type of assay: cell-based. The note with it: agar dilution.
Assay [5] deals with Staphylococcus epidermidis EPI1. Type of assay: cell-based. The note with it: Staphylococcus epidermidis EPI1; agar dilution.
Assay [6] concerns Staphylococcus epidermidis EPI2. Description: MIC, standard agar-dilution assay. Type of assay: cell-based.
Assay [7] has as its system Streptococcus pyogenes C203. Description: MIC, standard agar-dilution assay. Type of assay: cell-based. The note with it: Streptococcus pyogenes C203; agar dilution.
Assay [8] deals with Streptococcus pneumoniae Park I. Type of assay: cell-based. The note with it: agar dilution.
Assay [9] relates to Streptococcus Group D X66. Put plainly: MIC, standard agar-dilution assay. Type of assay: cell-based. The note with it: Streptococcus Group D X66; agar dilution.
In a further assay the test system is Streptococcus Group 9960. Description: MIC, standard agar-dilution assay. Type of assay: cell-based. The following applies: Streptococcus Group 9960; agar dilution.
Assay [10] deals with Haemophilus influenzae C.L. Description: MIC, standard agar-dilution assay. Type of assay: cell-based. The following applies: ampicillin-sensitive strain.
Assay [11] deals with Haemophilus influenzae 76. Description: MIC, standard agar-dilution assay. Type of assay: cell-based. The following applies: Haemophilus influenzae 76, ampicillin-resistant strain.
The subject of the next assay is Staphylococcus aureus. Put plainly: ED50 in experimentally infected mice. Type of assay: in vivo. The following applies: mice infected with Staphylococcus aureus; administered subcutaneously 1 and 4 hours postinfection.
In a further assay the test system is Streptococcus pneumoniae. Description: ED50 in experimentally infected mice. Type of assay: in vivo. The following applies: mice infected with Streptococcus pneumoniae; administered subcutaneously 1 and 4 hours postinfection. As to the method:
(§1) Some of the derivatives of this invention have shown in vivo antimicrobial activity against experimentally-induced infections in laboratory animals. When two doses of test compound were administered to experimentally infected mice, the activity observed was measured as an ED50 value [effective dose in mg/kg to protect 50% of the test animals: see Warren Wick, et al., J. Bacteriol. 81, 233-235 (1961)].
(§2) ^a mg/kg × 2; administered subcutaneously 1 and 4 hours

Another assay has as its system Streptococcus pyogenes. Description: ED50 in experimentally infected mice. Type of assay: in vivo. The following applies: mice infected with Streptococcus pyogenes; administered subcutaneously 1 and 4 hours postinfection. The method, then: as §1, §2

For N--(L-phenylalanyl)A41030A [Example 17], the MIC in assay [1], in assay [2], in assay [3], in assay [4], in assay [5] and in [6] was 0.125 µg/mL throughout. Further, the MIC amounted to 0.125 µg/mL in assay [7]; 0.125 µg/mL in assay [8]; 0.5 µg/mL in assay [9]; 0.125 µg/mL in the assay on Streptococcus Group 9960; 8 µg/mL in assay [10]; 16 µg/mL in assay [11]. Also, the results for the ED50 in the assay on Staphylococcus aureus, with Streptococcus pneumoniae and with Streptococcus pyogenes were 0.08 mg/kg × 2, 8.52 mg/kg × 2 and > 10 mg/kg × 2, respectively.
On to N--(nonanoyl)A41030A [Example 19], for which the MIC in [1] was 0.125 µg/mL; in assay [2], 0.25 µg/mL; in [3], 0.25 µg/mL; in [4], 0.25 µg/mL; in assay [5], 0.125 µg/mL; in assay [6], 0.25 µg/mL. In addition, the MIC in [7] is 0.5 µg/mL; in [8] it was 0.5 µg/mL; in assay [9], 0.25 µg/mL; with Streptococcus Group 9960, 0.25 µg/mL; in assay [10], 32 µg/mL; in assay [11], 16 µg/mL. The ED50 in the assay with Staphylococcus aureus is listed as < 0.31 mg/kg × 2; in the assay with Streptococcus pneumoniae, > 10 mg/kg × 2; in the assay with Streptococcus pyogenes it was > 10 mg/kg × 2.
